These results are taken from patent US9408890B2, “Multivalent liposome formulations” (priority 2013, dated 2016).

What all share (type): cell-based, influenza A virus
The test system of test [1] is influenza A/Puerto Rico/8/34 (PR/8, H1N1). On the set-up: inhibition of hemagglutination: dose or concentration left out as unconfirmed.
For test [2] the test system is unchanged.
Test [3] has as its system Influenza A/Philippines X-79 (H3N2). As to conditions: 74,000 nM monovalent LSTc; data not shown.

As to “sialylneolacto-N-tetraose c [Monovalent LSTc]”, the inhibition of hemagglutination result in test [1] was “did not inhibit hemagglutination”. Besides, in test [1] (four HA units of virus, human RBCs, reciprocal of last liposome dilution giving non-agglutinated RBCs), the “HAI Titer” value was “No inhibition”. The “inhibition of PR/8 infection of MDCK cells (FIG. 3A)” value in test [2] is recorded as “did not significantly inhibited infection at high concentrations”. In addition, the “inhibition of infectivity of PR/8” value in test [2] (74,000 nM monovalent LSTc) is “did not inhibit the infectivity”. Besides, the “inhibition of infectivity of Philippines” value in test [3] is “did not inhibit the infectivity”.
